# From patent publication US8541235B2, “Modified reconstituted basement membrane composition for assay system” (Corning Incorporated, priority 2003, dated 2013)
# Where two headings read alike, the source gives them in different places.
# Key:
# HUVEC tube formation [1] = experiment: Endothelial cell tube formation assay, stimulator studies on modified matrix; type: cell-based, human; conditions: modified matrix (inventive), total tube length, n=4
# Description: (§1) With reference to FIG. 1, angiogenesis stimulators can be evaluated for their ability to enhance HUVEC tube formation using the compositions and cell culturing systems of the present invention. […] The bottom surface of the wells are shown as coated with the modified matrix composition of the present invention. On day 1, a potential angiogenesis stimulator is added to the coated surface, along with endothelial cells in cell medium. […] In inhibitor studies, the potential inhibitor is included in a well, in addition to at least one known stimulator and the endothelial cells in cell medium. After an appropriate incubation period, typically 24 hours at 37° C./5% CO2 (day 2), images of the wells are acquired, and tube length is quantified as a measure of cell tube formation.
# Known stimulators were chosen to evaluate the performance of an inventive basement membrane composition vs. a prior basement membrane composition. The chosen stimulators were bFGF and spinosine-1-phosphate (S1P). […]
# At the end of each assay, assay medium was removed and plates were washed once with HBSS. […] Total tube length of each well was measured using a revised (from previous) MetaMorph® Journal. Excel data was imported and analyzed using BD Gentest MPM/ADMET Software Program from BD Biosciences Discovery Labware. […]
# HUVEC tube formation [2] = experiment: Endothelial cell tube formation assay, inhibitor studies on modified matrix (tube formation induced by bFGF or S1P); type: cell-based, human; conditions: for Effect on S1P induced HUVEC tube formation: S1P 1 μM; for IC50: Homo sapiens, HUVEC
# Description: as §1
# Known stimulators were chosen to evaluate the performance of an inventive basement membrane composition vs. a prior basement membrane composition. The chosen stimulators were bFGF and spinosine-1-phosphate (S1P). Coated plates prepared as described above in Example 2 were thawed at about 4° C. for a period of about 4 to 5 hours. The components of the composition were then allowed to polymerize at 37° C., 5% CO2 for approximately 30 minutes immediately before assay setup. For stimulator studies, HUVEC (P3-P5) were harvested at about 70% cell confluence. About 50 μl of cells at 4×10^5/ml in 0.1% FBS/EBM-2 medium supplemented with or without the angiogenesis stimulators were seeded onto 96-well plates containing the pre-solidified (i.e., polymerized) modified reconstituted basement membrane composition (inventive) or a standard Matrigel® matrix (BD Growth Factor Reduced Matrigel® Matrix). The assembled assays were allowed to incubate in a 37° C. incubator with 5% CO2 for approximately 16 to 18 hours. Compounds were dissolved in DMF or water according to manufacturer's instructions.
# At the end of each assay, assay medium was removed and plates were washed once with HBSS. 50 μl Calcein AM at 8 μg/ml in HBSS was added to each well and plates were incubated in a 37° C./5% CO2 incubator for 35 minutes followed by washing once in HBSS. Images were acquired with a 2× objective lens on an automated Gen-1 Cell-based Screening System (Universal Imaging Corporation™). Total tube length of each well was measured using a revised (from previous) MetaMorph® Journal. Excel data was imported and analyzed using BD Gentest MPM/ADMET Software Program from BD Biosciences Discovery Labware.
# Inhibitor studies were performed as generally described in Example 4, except that for these studies, an inhibitor was included in the assay, in addition to a known stimulator. Data was obtained on the modified matrix (inventive). […] Stimulators, bFGF or S1P, were added to HUVECs at 20 ng/ml and 1 μM, respectively. Suramin of indicated concentrations was added to HUVEC in bFGF or S1P prior to adding the mixtures to each well. Each data point represents the mean+/−standard deviation (n=4).
# With reference now to FIG. 5, the effects of inhibitors (SU5402 and Suramin) on HUVEC tube formation induced by stimulators (bFGF and S1P) is shown. Data was obtained on the modified matrix (inventive). Stimulators, bFGF or S1P, were added to HUVECs in EBM-2 containing 0.1% FBS at a final concentration of 20 ng/ml and 1 μM, respectively. Suramin at 15 μM (in medium) or SU5402 at 25 μM (in 0.1% DMF) were added to HUVECs in 0.1% FBS, or bFGF, or S1P, prior to adding the mixtures to the wells. […] Each bar represents the mean+/−standard deviation (n=4).
compound,measurement,setting,value
"CCCCCCCCCCCCC/C=C/[C@@H](O)[C@@H](N)COP(=O)(O)O [S1P, sphinosine-1-phosphate]",EC50,HUVEC tube formation [1]; read-out: EC50 in inducing HUVEC tube formation,0.319 µM
Cc1c[nH]c(/C=C2\C(=O)Nc3ccccc32)c1CCC(=O)O [SU5402],Effect on S1P induced HUVEC tube formation,"HUVEC tube formation [2]; SU5402 at 25 μM (in 0.1% DMF), modified matrix, FIG. 5",partially inhibited
same,Effect on HUVEC tube formation stimulated by bFGF,"HUVEC tube formation [2]; SU5402 at 25 μM (in 0.1% DMF), bFGF 20 ng/ml, modified matrix, FIG. 5",completely inhibited
Cc1ccc(C(=O)Nc2ccc(S(=O)(=O)O)c3cc(S(=O)(=O)O)cc(S(=O)(=O)O)c23)cc1NC(=O)c1cccc(NC(=O)Nc2cccc(C(=O)Nc3cc(C(=O)Nc4ccc(S(=O)(=O)O)c5cc(S(=O)(=O)O)cc(S(=O)(=O)O)c45)ccc3C)c2)c1 [Suramin],IC50,HUVEC tube formation [2]; read-out: IC50 of inhibition of tube formation stimulated by S1P,10.6 µM
same,IC50,HUVEC tube formation [2]; read-out: IC50 of inhibition of tube formation stimulated by bFGF,7.3 µM
same,Effect on S1P induced HUVEC tube formation,"HUVEC tube formation [2]; Suramin at 15 μM (in medium), modified matrix, FIG. 5",inhibited
same,Effect on bFGF induced HUVEC tube formation,"HUVEC tube formation [2]; Suramin at 15 μM (in medium), bFGF 20 ng/ml, modified matrix, FIG. 5",inhibited
bFGF: known angiogenesis stimulator; fibroblast growth factor (basic FGF),EC50 in inducing HUVEC tube formation,HUVEC tube formation [1],1.5 ng/mL
